One compound from patent US20220087951A1, “USE OF CANNABINOIDS IN THE TREATMENT OF EPILEPSY” (GW RESEARCH LIMITED, priority 2020, published 2022) can be followed below.

In series [1] the test system is seizures in children and young adults with Dravet Syndrome and Lennox-Gastaut Syndrome. In words: Example 1: primary seizure count during baseline and by cumulative day in the treatment period, CBD vs placebo added to baseline AED regimen. It is filed as in vivo, human. The settings on record: for Ratio to Baseline (number of seizures with treatment to number of seizures at baseline): 5 mg/kg/day starting dose, negative binomial regression of primary seizure count; for percent change in number of seizures compared to baseline: 5 mg/kg/day, positive = decrease in seizures. Here is the method:
Children and young adults with Dravet Syndrome Lennox-Gastaut Syndrome were administered a highly purified extract of cannabidiol (CBD) obtained from a cannabis plant or placebo.
The highly purified CBD extract (greater than 98% CBD w/w) was administered in a formulation described herein at a starting dose of 5 mg/kg/day in addition to their baseline anti-epileptic drug (AED) regimen.
The starting dose increase from 5 mg/kg/day to 10 mg/kg/day after one week of administering the first dose of CBD. […] The titration period occurred over two weeks. The starting dose was expected to minimize side effects, and not intended to achieve efficacy.
All patients were taking at least two concomitant anti-epileptic drugs. These included clobazam; levetiracetam; topiramate; stiripentol; phenobarbital; lacsamide; valproic acid; zonisamide.
(§1) Prior to treatment with CBD, patients recorded the number of seizures they experienced. This established the baseline levels. During the course of treatment, patients recorded the number of seizures experienced each day.
The ratio in Table 9 is defined as the number of seizures with treatment to the number of seizures at baseline (e.g., before treatment). The percentage defines the percent change in number of seizures compared to baseline. Positive percentages reflect a decrease in the number of seizures compared to baseline, and negative percentages reflect an increase in number of seizures compared to baseline. The ratio to baseline of patients administered CBD extract includes data from patients treated with a maximum of 10 mg/kg/day or 20 mg/kg/day CBD extract. However, the amount of CBD administered to each treatment arm (10 mg/kg/day and 20 mg/kg/day) over the first 7 days of the study is the same.

Series [2] in a line: Solubility of the drug substance in water. The class given is physicochemical.
Series [3] has as its system seizures in patients with Tuberous Sclerosis Complex (TSC). The series can be described thus: Example 2: mean total seizures over time of TSC patients after administration of CBD (FIG. 2). It is filed as in vivo, human. How it is done:
Patients with TSC were administered a highly purified extract of cannabidiol (CBD) obtained from a cannabis plant described herein. Similar to Example 1, patients with a TSC diagnosis were administered a starting dose of 5 mg/kg/day CBD in addition to their baseline anti-epileptic drug (AED) regimen or placebo.
The daily dose was increased by 5 mg/kg increments until intolerance occurred or a maximum dose of 25 mg/kg/day was achieved. The starting dose increase from 5 mg/kg/day to 10 mg/kg/day occurred 7 days after administration of the first dose of CBD. […] The titration period occurred over two weeks. For patients in need of further seizure reduction, the dosage of 20 mg/kg/day was increased up to 25 mg/kg/day after one week.
All patients were taking at least two concomitant anti-epileptic drugs. These included clobazam; levetiracetam; topiramate; stiripentol; phenobarbital; lacsamide; valproic acid; zonisamide. The average number of concomitant antiepileptic drugs being taken was 2.7. The majority took either clobazam and/or valproic acid.
as §1

As for `C=C(C)[C@@H]1CCC(C)=C[C@H]1c1c(O)cc(CCCCC)cc1O` [CBD, Cannabidiol], the “Ratio to Baseline (number of seizures with treatment to number of seizures at baseline)” value came to 0.958 in series [1] (Day 1); 0.907 in series [1] (First 2 Days); 0.882 in series [1] (First 3 Days); 0.831 in series [1] (First 4 Days); 0.793 in series [1] (First 5 Days); 0.742 in series [1] (First 6 Days). Moreover, the “Ratio to Baseline (number of seizures with treatment to number of seizures at baseline)” value in series [1] (First 7 Days) is on record as 0.717. The “percent change in number of seizures compared to baseline” value in series [1] (Day 1) is “[4.2%]”; in series [1] (First 2 Days) it was “[9.3%]”; in series [1] (First 3 Days), “[11.8%]”; in series [1] (First 4 Days) it was “[16.9%]”; in series [1] (First 5 Days), “[20.7%]”; in series [1] (First 6 Days) it was “[25.8%]”. The “percent change in number of seizures compared to baseline” value in series [1] (First 7 Days) is “[28.3%]”. The “onset of seizure reduction” value in series [1] (Dravet/Lennox-Gastaut patients, starting dose 5 mg/kg/day) was “within one week”; in series [3] (starting dose 5 mg/kg/day) it was “within one week”. For the same compound, the “reduction in seizures compared to baseline” value in series [1] (after 4 days of treatment) and in series [3] (after 4 days of treatment) was “significant reduction in seizures” in each case. This compound also gave a reduction of seizures in series [1] (from within 4 days of treatment, 5 mg/kg/day CBD) of over 15%. The “time to seizure reduction after administration of starting dose” value in series [1] (starting dose 5 mg/kg/day) and in series [3] (starting dose 5 mg/kg/day) was at most 4 days throughout. Further, in series [2], the solubility in water entry is listed as “insoluble in water”. Also, in series [3] (titration period, starting dose 5 mg/kg/day), the “mean total seizures over time (FIG. 2)” value was “starts decreasing during the titration period”.
